Active and inactive are the calls of the source. The rule behind the calls is not given here.
Legend:
[1] = system: Mus musculus; assay: Psychedelic effect in C57BL/6J mouse assessed as number of head-twitch responses by visual observation at 3 mg/kg, po measured for 3 mins at 5 to 25 min; type: functional; settings: 0.05 h
[2] = species on record: Homo sapiens; assay: Selectivity ratio, ratio of Ki for human 5-HT2B receptor to human 5-HT2A receptor
[3] = molecular target: 5-hydroxytryptamine receptor 7 (Homo sapiens, UniProt P34969); assay: Displacement of [3H]LSD from 5-HT7 receptor (unknown origin) assessed as inhibition binding at 10 uM relative to control
[4] = molecular target: Muscarinic acetylcholine receptor M4 (Homo sapiens) (UniProt P08173); assay: Displacement of [3H]4-DAMP from human recombinant muscarinic M4 receptor expressed in HEK293 cells at 10 uM incubated for 60 mins by radiometric based scintillation counter assay relative to control; type: cell-based
[5] = molecular target: Muscarinic acetylcholine receptor M5 (Homo sapiens) (UniProt P08912); assay: Displacement of [3H]4-DAMP from human recombinant muscarinic M5 receptor expressed in HEK293 cells at 10 uM incubated for 60 mins by radiometric based scintillation counter assay relative to control; type: cell-based
[6] = molecular target: Voltage-dependent L-type calcium channel subunit alpha-1C (Homo sapiens, UniProt Q13936); assay: Binding affinity to human Calcium channel L-type (verapamil site) at 10 uM measured after 180 mins by [3H]D888-Radiometric assay relative to control
[7] = system: Mus musculus; assay: Psychedelic effect in sc dosed C57BL/6J mouse assessed as induction of 5-HT2A receptor dependent head-twitch responses by visual observation measured within 10 mins; type: functional, organism-based; settings: dose 0.1-3 mg/kg
[8] = system: Mus musculus; assay: Psychedelic effect in C57BL/6J mouse assessed as maximal number of 5-HT2A receptor dependent head-twitch responses by visual observation at 3 mg/kg, sc (reference value: 3); type: functional
[9] = system: Mus musculus; assay: Psychedelic effect in C57BL/6J mouse assessed as development of tolerance/ tachyphylaxis at 3 mg/kg, sc measured on day 4 by head-twitch responses test; type: functional, organism-based; settings: time 4.0 day
[10] = Ex vivo binding in C57BL/6J mouse brain frontal cortex assessed as specific binding [3H]Cimbi-36 at 1 mg/kg, sc measured after 10 mins by liquid scintillation counting analysis (reference value: 1092 +/- 53); type: functional
[11] = Ex vivo binding in C57BL/6J mouse brain frontal cortex assessed as specific binding [3H]Cimbi-36 at 1 mg/kg, sc measured after 15 mins by liquid scintillation counting analysis (reference value: 1092 +/- 53); type: functional; settings: 0.25 h
[12] = Ex vivo binding in C57BL/6J mouse brain frontal cortex assessed as inhibition of [3H]Cimbi-36 binding at 1 mg/kg, sc measured after 40 mins by liquid scintillation counting analysis (reference value: 0%); type: functional
[13] = Ex vivo binding in C57BL/6J mouse brain frontal cortex assessed as inhibition of [3H]Cimbi-36 binding at 1 mg/kg, sc measured after 360 mins by liquid scintillation counting analysis (reference value: 0%); type: functional; settings: 6 h
[14] = system: Hippocampus; assay: Induction of neuroplasticity in C57BL/6J mouse assessed as increase in Homer 1 mRNA expression in brain hippocampus at 3 mg/kg, sc single dose by RT-PCR analysis; type: functional, organism-based
[15] = system: Hippocampus; assay: Induction of neuroplasticity in C57BL/6J mouse assessed as increase in EGR2 mRNA expression in brain hippocampus at 3 mg/kg, sc single dose by RT-PCR analysis; type: functional, organism-based
[16] = system: Hippocampus; assay: Induction of neuroplasticity in C57BL/6J mouse assessed as increase in NPTN mRNA expression in brain hippocampus at 3 mg/kg, sc single dose by RT-PCR analysis; type: functional, organism-based
[17] = system: Mus musculus; assay: Induction of neuroplasticity in C57BL/6J mouse assessed as increase in EGR2 mRNA expression in brain frontal cortex at 0.3 mg/kg, sc single dose by RT-PCR analysis; type: functional, organism-based
[18] = system: Hippocampus; assay: Induction of neuroplasticity in C57BL/6J mouse assessed as increase in CREB1 mRNA expression in brain hippocampus at 0.3 mg/kg, sc single dose by RT-PCR analysis; type: functional, organism-based
[19] = system: Hippocampus; assay: Induction of neuroplasticity in C57BL/6J mouse assessed as increase in EGR2 mRNA expression in brain hippocampus at 0.3 mg/kg, sc single dose by RT-PCR analysis; type: functional, organism-based
[20] = Metabolic stability in monkey liver S9 fractions assessed as half life; type: ADME, subcellular, Macaca fascicularis; settings: cynomolgus monkey, liver S9 fraction
[21] = Drug metabolism in human hepatocytes at 10 uM by HRAMS analysis; type: ADME, cell-based, Hepatocyte
[22] = Initial plasma concentration in Wistar rat at 1 mg/kg, iv measured upto 48 hrs; type: ADME, organism-based
[23] = AUCinf in Wistar rat plasma at 1 mg/kg, iv measured upto 48 hrs; type: ADME, organism-based
[24] = MRTlast in Wistar rat plasma at 1 mg/kg, iv measured upto 48 hrs; type: ADME, organism-based
[25] = Absolute oral bioavailability in Wistar rat plasma at 5 mg/kg, […] measured upto 48 hrs; type: ADME, organism-based
[26] = Cmax in Wistar rat brain at 1 mg/kg, iv measured upto 48 hrs; type: ADME, organism-based
[27] = AUClast in Wistar rat brain at 1 mg/kg, iv measured upto 48 hrs; type: ADME, organism-based
[28] = Brain to plasma ratio in Wistar rat at 1 mg/kg, iv measured upto 48 hrs; type: ADME, organism-based; settings: read-out: BPR
[29] = Half life in Wistar rat brain at 5 mg/kg, po measured upto 48 hrs; type: ADME, organism-based
[30] = MRTlast in Wistar rat brain at 5 mg/kg, po measured upto 48 hrs; type: ADME, organism-based
[31] = Drug excretion in Wistar rat urine at 1 mg/kg, iv measured upto 48 hrs; type: ADME, organism-based; settings: read-out: Drug excretion
[32] = Initial plasma concentration in male Sprague-Dawley rat at 1 mg/kg, iv measured upto 8 hrs by LC-MS/MS analysis; type: ADME, organism-based
[33] = Half life in male Sprague-Dawley rat plasma at 1 mg/kg, iv measured upto 8 hrs by LC-MS/MS analysis; type: ADME, organism-based
[34] = AUCinf in male Sprague-Dawley rat plasma at 1 mg/kg, iv measured upto 8 hrs by LC-MS/MS analysis; type: ADME, organism-based
[35] = Cmax in male Sprague-Dawley rat brain at 1 mg/kg, iv measured upto 8 hrs by LC-MS/MS analysis; type: ADME, organism-based
[36] = AUClast in male Sprague-Dawley rat brain at 1 mg/kg, iv measured upto 8 hrs by LC-MS/MS analysis; type: ADME, organism-based
[37] = MRTinf in male Sprague-Dawley rat brain at 1 mg/kg, iv measured upto 8 hrs by LC-MS/MS analysis; type: ADME, organism-based
[38] = CSF to plasma ratio in male Sprague-Dawley rat at 1 mg/kg, iv measured upto 8 hrs by LC-MS/MS analysis; type: ADME, organism-based; settings: CSF and plasma
[39] = system: Brain; assay: Drug binding in male C57BL/6J mouse brain homogenate at 1 mg/kg, iv measured upto 8 hrs by LC-MS/MS analysis; type: ADME, organism-based; settings: in vivo
[40] = Cmax in beagle dog at 2 mg/kg, po measured upto 24 hrs; type: ADME, organism-based, Canis lupus familiaris; settings: in vivo
[41] = Half life in beagle dog at 2 mg/kg, po measured upto 24 hrs; type: ADME, organism-based, Canis lupus familiaris; settings: in vivo
[42] = Oral bioavailability in beagle dog at 2 mg/kg measured upto 24 hrs; type: ADME, organism-based, Canis lupus familiaris; settings: in vivo

Muscarinic acetylcholine receptor M4 (Homo sapiens), sequence (P08173 whole entry): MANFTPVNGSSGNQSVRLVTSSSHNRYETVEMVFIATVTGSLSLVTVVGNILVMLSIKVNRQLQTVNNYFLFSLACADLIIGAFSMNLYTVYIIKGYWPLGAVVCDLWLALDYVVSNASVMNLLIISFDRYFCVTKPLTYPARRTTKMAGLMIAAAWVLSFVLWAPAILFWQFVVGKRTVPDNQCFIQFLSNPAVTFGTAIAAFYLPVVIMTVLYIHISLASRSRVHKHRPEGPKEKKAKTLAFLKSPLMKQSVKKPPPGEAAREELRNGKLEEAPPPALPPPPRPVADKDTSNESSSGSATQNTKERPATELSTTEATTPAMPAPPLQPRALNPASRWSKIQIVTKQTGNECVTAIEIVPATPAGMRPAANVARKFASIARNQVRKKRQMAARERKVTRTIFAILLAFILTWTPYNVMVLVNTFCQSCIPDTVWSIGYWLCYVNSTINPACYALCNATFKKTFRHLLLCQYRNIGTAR
5-hydroxytryptamine receptor 7, sequence (P34969 whole entry): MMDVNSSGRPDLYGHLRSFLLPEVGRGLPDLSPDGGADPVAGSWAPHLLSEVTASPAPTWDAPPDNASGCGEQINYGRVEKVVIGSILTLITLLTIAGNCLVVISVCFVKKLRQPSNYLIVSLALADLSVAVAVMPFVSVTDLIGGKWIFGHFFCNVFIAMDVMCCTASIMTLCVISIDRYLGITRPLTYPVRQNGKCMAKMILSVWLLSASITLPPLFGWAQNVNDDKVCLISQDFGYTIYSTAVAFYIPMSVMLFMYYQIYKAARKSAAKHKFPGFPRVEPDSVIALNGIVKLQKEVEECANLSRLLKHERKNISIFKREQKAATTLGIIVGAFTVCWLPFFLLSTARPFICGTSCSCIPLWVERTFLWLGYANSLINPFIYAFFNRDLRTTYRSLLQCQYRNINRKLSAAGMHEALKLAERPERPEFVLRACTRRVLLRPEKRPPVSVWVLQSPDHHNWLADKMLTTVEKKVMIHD
Muscarinic acetylcholine receptor M5 (Homo sapiens), sequence (P08912 whole entry): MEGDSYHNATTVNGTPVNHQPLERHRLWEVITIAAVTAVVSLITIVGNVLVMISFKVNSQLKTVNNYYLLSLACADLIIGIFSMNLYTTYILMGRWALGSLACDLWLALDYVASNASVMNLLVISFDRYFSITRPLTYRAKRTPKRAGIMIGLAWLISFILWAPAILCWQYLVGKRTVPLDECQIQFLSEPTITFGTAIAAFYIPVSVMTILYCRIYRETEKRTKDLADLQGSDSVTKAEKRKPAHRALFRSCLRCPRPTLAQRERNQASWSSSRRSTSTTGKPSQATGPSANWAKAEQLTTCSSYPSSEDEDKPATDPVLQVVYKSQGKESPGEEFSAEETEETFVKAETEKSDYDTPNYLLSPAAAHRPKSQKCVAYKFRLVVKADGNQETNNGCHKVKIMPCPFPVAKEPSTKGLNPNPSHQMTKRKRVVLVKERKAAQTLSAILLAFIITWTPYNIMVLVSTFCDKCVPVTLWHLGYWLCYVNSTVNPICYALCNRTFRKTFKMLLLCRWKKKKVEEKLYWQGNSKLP
Voltage-dependent L-type calcium channel subunit alpha-1C, sequence (Q13936 whole entry): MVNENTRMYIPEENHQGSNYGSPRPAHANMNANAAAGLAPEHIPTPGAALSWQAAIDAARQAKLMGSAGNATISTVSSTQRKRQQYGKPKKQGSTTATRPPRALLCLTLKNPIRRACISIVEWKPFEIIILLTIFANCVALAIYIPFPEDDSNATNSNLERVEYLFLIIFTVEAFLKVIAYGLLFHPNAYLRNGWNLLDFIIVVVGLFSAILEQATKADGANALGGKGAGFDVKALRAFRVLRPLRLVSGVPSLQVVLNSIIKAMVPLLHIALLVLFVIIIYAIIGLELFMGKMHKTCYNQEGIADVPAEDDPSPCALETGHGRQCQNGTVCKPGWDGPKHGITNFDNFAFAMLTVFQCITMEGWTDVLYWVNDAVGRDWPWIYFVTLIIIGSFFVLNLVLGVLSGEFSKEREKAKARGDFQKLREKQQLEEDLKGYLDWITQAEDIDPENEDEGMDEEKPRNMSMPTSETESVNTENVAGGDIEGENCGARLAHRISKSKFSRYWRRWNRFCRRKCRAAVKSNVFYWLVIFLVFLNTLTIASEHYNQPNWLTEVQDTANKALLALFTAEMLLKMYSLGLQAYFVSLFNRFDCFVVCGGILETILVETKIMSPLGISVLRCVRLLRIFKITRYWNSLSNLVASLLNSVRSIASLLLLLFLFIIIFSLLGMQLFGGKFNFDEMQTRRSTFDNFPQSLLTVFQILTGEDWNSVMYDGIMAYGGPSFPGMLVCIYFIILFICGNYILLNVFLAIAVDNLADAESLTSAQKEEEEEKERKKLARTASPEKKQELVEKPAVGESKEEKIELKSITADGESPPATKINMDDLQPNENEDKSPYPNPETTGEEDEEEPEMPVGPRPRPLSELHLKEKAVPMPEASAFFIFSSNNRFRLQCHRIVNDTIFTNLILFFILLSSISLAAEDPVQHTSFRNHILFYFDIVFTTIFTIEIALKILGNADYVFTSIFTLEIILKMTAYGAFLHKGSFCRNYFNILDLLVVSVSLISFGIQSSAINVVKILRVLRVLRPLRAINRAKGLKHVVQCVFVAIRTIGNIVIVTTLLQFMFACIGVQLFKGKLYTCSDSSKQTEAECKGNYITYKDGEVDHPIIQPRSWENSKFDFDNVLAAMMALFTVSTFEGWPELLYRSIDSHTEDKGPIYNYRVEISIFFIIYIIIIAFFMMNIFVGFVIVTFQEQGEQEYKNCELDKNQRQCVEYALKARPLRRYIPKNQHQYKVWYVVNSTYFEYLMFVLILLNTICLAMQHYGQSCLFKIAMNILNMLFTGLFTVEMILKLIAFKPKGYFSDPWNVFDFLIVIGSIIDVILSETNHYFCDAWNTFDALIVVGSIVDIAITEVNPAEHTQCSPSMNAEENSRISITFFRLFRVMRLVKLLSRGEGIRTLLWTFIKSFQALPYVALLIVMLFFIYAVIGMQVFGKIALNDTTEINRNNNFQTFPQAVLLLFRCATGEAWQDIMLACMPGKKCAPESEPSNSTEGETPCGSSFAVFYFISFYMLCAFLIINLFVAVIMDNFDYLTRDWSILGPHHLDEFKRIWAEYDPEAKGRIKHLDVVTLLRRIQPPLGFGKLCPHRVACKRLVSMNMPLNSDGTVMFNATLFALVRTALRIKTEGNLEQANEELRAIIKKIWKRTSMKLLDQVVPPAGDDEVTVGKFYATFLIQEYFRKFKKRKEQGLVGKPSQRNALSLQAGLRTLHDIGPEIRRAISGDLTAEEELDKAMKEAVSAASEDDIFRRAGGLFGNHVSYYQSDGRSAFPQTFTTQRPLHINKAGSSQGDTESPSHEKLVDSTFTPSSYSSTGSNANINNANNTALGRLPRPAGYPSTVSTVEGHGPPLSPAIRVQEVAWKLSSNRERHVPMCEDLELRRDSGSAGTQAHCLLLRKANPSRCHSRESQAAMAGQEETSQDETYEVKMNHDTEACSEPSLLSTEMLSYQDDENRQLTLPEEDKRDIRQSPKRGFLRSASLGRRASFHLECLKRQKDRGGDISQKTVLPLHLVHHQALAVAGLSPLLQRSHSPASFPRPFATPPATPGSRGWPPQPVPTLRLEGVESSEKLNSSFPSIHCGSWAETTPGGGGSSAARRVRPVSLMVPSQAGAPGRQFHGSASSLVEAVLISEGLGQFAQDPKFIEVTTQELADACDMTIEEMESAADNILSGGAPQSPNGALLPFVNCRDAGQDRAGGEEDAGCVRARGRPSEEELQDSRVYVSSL

`COc1cc([Se]C(F)(F)F)c(OC)cc1CCN.Cl` showed an Activity [1] of 25, a Ratio Ki [2] of 19 and an inhibition [3] of 86%. For the same compound, the inhibition [4] was 86%, the inhibition [5] was 83% and the Activity [6] was 85%. The Activity [7] was “Dose-Dependent Effect”, the Activity [8] was 23 and the Activity [9] was “inactive”. For the same compound, the Activity [10] was 993, the Activity [11] was 971 and the inhibition in vivo at 1 mg/kg [12] was 33%. The inhibition in vivo at 1 mg/kg [13] was 25%, the Activity [14] was “inactive” and the Activity [15] was “inactive”. The Activity [16] was “inactive”, the Activity [17] was “Active” and the Activity [18] was “inactive”. For the same compound, the Activity [19] was “inactive”, the half-life [20] was 38 min and the Drug metabolism [21] was “Metabolite_Notdetected”. The C0 at 48 h [22] was 67.2 ng/mL, the AUC(0-inf) [23] was 50.7 ng·h/mL and the MRT last at 48 h [24] was 37.2 min. It also gave a bioavailability [25] of 19.1%, a Cmax [26] of 890 ng/mL and an AUC(0-t) at 48 h [27] of 2910 ng·h/mL. For the same compound, the Kp at 48 h [28] was 64.3, the half-life [29] was 283 min and the MRT last at 48 h [30] was 3.3 h. The dose excreted at 48 h [31] was 0.07%, the C0 at 8 h [32] was 330 ng/mL and the half-life [33] was 91.8 min. For the same compound, the AUC(0-inf) [34] was 210 ng·h/mL, the Cmax [35] was 1490 ng/mL and the AUC(0-t) at 8 h [36] was 3220 ng·h/mL. It also gave an MRT inf [37] of 1.98 h, a Kp at 8 h [38] of 0.2 and an Activity [39] of over 98%. The Cmax [40] was 263 ng/mL, the half-life [41] was 407 min and the bioavailability [42] was 138%.
